# Test results from US11654198B2, “Application of combination of polyethylene glycol and local anesthetic in non-narcotic analgesia” (JENKEM TECHNOLOGY CO., LTD. (TIANJIN), priority 2016, dated 2023).
# Key:
# SD rats [1] = experiment: Hot plate paw withdrawal time, rat plantar incision model (Example 31); assay type: in vivo
# Experimental: (§1) After SD rats inhale anesthesia (isoflurane), an incision of about 1 cm in length from the proximal end of the pelma to the toe is made: after the skin and fascia are cut, the plantar muscle is picked up with an ophthalmic forceps and cut longitudinally (maintaining the starting and ending point and attachment of muscles); pressing is carried out for hemostasis, physiological saline and test drugs are injected into the muscles of animal's legs, and then the pain threshold detection is performed by the hot plate method. Within 24 hours after the model is successful, the rats develop significant hyperalgesia. Qualified rats are randomly divided into 5 groups, 6 rats in each group, which are labeled as groups G1, G2, G3, G4 and G5, respectively. The plantar subcutaneous injection method for administration is used, and the grouping information of the experimental animals is shown in Table 8.
# (§2) Sensory block (hot plate paw withdrawal time): The sensory block of the rat is examined by a hot plate method, and the hot plate is heated to (56±1)° C., and one of the hind paws of the rat is placed on the hot plate, the other hind paw is in the laboratory room temperature condition, and the tested paw withdrawal time is observed and recorded. The average value of two to three times measured is recorded as a pain threshold. In order to avoid the damage of the experimental animal body, if the rat has no paw withdrawal in the hot plate experiment for more than 15 s, the paws should be removed from the hot plate, and the experimental result is recorded as 15 s. The time point for determining the paw withdrawal time of the hot plate is before administration, and 0.5 h, 1 h, 2 h, 4 h, 6 h, 8 h, 12 h, and 24 h after administration.
# SD rats [2] = experiment: Motor block four-level score, rat plantar incision model (Example 31); assay type: in vivo; design: key to motor function score: 1 = normal paw movement to 4 = complete loss of movement with gait defect; details: for motor function score: bupivacaine 8, conjugate 10/11/12 32/24/48 mg/kg
# Experimental: as §1
# Motor block (four-level score): The exercise condition of each group of rats is evaluated by the motor block four-level scoring method. The scoring criteria are: paws can be dorsiflexed, stretched, valgus and other normal exercises, scored by 1 point; paws can be dorsiflexed, bendable or after the adduction, although the paws can be stretched, the stretching ability is weakened, scored by 2 points; the paws can perform dorsiflexion, but no longer has the ability to stretch, scored by 3 points; the paws completely lose the ability of dorsiflexion, curling and stretching, and the rats produce a gait defect, scored by 4 points. The time point for measuring the motor block score is before administration, and 0.5 h, 1 h, 2 h, 4 h, 6 h, 8 h, 12 h, and 24 h after administration.
# SD rats [3] = experiment: Hot plate paw withdrawal time, rat sciatica model, intervertebral disc compression (SNL) (Example 32); assay type: in vivo
# Description: Intervertebral disc compression (SNL): This model is a pathological form that simulates clinical disc herniation. The specific method is to remove the autogenous caudal intervertebral disc tissue (annulus fibrosus and nucleus pulposus) form the rats and place the caudal intervertebral disc tissue between the proximal nerve root of the L5 dorsal root ganglion and the lower vertebral body to directly compress the L5 nerve root, wherein damage to the L5 nerve root or dorsal root ganglion should be avoided during the operation. 3 to 15 days after the model is successful, rats develop significant hyperalgesia, so the administration time we chose is between 3 days and 15 days.
# Qualified rats are randomly divided into 5 groups, 6 rats in each group, which are labeled as groups G1, G2, G3, G4 and G5, respectively. Administration by intramuscular injection around sciatic nerve is adopted, and the grouping information of the experimental animals is shown in Table 11.
# as §2, with “determining the withdrawal time” for “determining the paw withdrawal time”
# SD rats [4] = experiment: Sensory block, hot plate paw withdrawal time, non-anesthetic analgesic effect of PEG-bupivacaine conjugate (Example 30); assay type: in vivo, rat; details: for hot plate paw withdrawal time: conjugate 10/11/12 at 32/24/48 mg/kg (as bupivacaine)
# Experimental: Male Sprague-Dawley rats are used in the study, about 230-250 g when accepted, and acclimated for at least 7 days prior to the experiment. Two rats are raised in each cage and fed freely with feed and water. The environmental conditions of the breeding room are 23±2° C., and the relative humidity is 40% to 70%, alternating 12 hours of light and dark. […] The qualified rats are randomly divided into 4 groups, 4 rats in each group, which are labeled as groups G1, G2, G3, and G4, respectively. Administration by direct injection in the sciatic nerve is adopted, and with the rat's back facing up, the drug is injected around the right sciatic nerve trunk between the right hip and the right thigh.
# as §2, with “the hot plate. The other hind” for “the hot plate, the other hind”, “s, the rat should be” for “s, the paws should be”, “8 h, 10 h, 12 h,” for “8 h, 12 h,”
# [5] = 0 h (after surgery, before administration), bupivacaine 8, conjugate 10/11/12 32/24/48 mg/kg
# [6] = bupivacaine 8, conjugate 10/11/12 32/24/48 mg/kg
# [7] = conjugate 10/11/12 at 32/24/48 mg/kg
substance,measurement,setting,value
"8-Arm-PEG-Bupivacaine, 20K [bupivacaine conjugate 12]",hot plate paw withdrawal time,SD rats [1]; [5],1.89 s
same,hot plate paw withdrawal time,"SD rats [1]; 0.5 h after plantar subcutaneous injection, bupivacaine 8, conjugate 10/11/12 32/24/48 mg/kg",8.13 s
same,hot plate paw withdrawal time,"SD rats [1]; 1 h after plantar subcutaneous injection, bupivacaine 8, conjugate 10/11/12 32/24/48 mg/kg",7.21 s
same,hot plate paw withdrawal time,"SD rats [1]; 2 h after plantar subcutaneous injection, bupivacaine 8, conjugate 10/11/12 32/24/48 mg/kg",6.12 s
same,hot plate paw withdrawal time,"SD rats [1]; 4 h after plantar subcutaneous injection, bupivacaine 8, conjugate 10/11/12 32/24/48 mg/kg",2.49 s
same,hot plate paw withdrawal time,"SD rats [1]; 6 h after plantar subcutaneous injection, bupivacaine 8, conjugate 10/11/12 32/24/48 mg/kg",2.34 s
same,hot plate paw withdrawal time,"SD rats [1]; 8 h after plantar subcutaneous injection, bupivacaine 8, conjugate 10/11/12 32/24/48 mg/kg",2.10 s
same,hot plate paw withdrawal time,"SD rats [1]; 12 h after plantar subcutaneous injection, bupivacaine 8, conjugate 10/11/12 32/24/48 mg/kg",1.92 s
same,hot plate paw withdrawal time,"SD rats [1]; 24 h after plantar subcutaneous injection, bupivacaine 8, conjugate 10/11/12 32/24/48 mg/kg",1.76 s
same,hot plate paw withdrawal time,"SD rats [1]; base value before surgery, bupivacaine 8, conjugate 10/11/12 32/24/48 mg/kg (as bupivacaine)",5.81 s
same,time after administration at which hot plate paw withdrawal time is significantly higher than vehicle group,SD rats [1]; [6],≤ 2 h
same,time the analgesic effect can reach,SD rats [1]; [7],2 h
same,motor function score,SD rats [2]; 0 h (before administration),1 ± 0
same,motor function score,SD rats [2]; 0.5 h,1 ± 0
same,motor function score,SD rats [2]; 1 h,1 ± 0
same,motor function score,SD rats [2]; 2 h,1 ± 0
same,motor function score,SD rats [2]; 4 h,1 ± 0
same,motor function score,SD rats [2]; 6 h,1 ± 0
same,motor function score,SD rats [2]; 8 h,1 ± 0
same,motor function score,SD rats [2]; 12 h,1 ± 0
same,motor function score,SD rats [2]; 24 h,1 ± 0
same,effect on motor function of SD rats,SD rats [2]; [7],does not affect the motor function
same,hot plate paw withdrawal time,SD rats [3]; [5],1.89 s
same,hot plate paw withdrawal time,"SD rats [3]; 0.5 h after intramuscular injection around sciatic nerve, bupivacaine 8, conjugate 10/11/12 32/24/48 mg/kg",8.13 s
same,hot plate paw withdrawal time,"SD rats [3]; 1 h after intramuscular injection around sciatic nerve, bupivacaine 8, conjugate 10/11/12 32/24/48 mg/kg",7.21 s
same,hot plate paw withdrawal time,"SD rats [3]; 2 h after intramuscular injection around sciatic nerve, bupivacaine 8, conjugate 10/11/12 32/24/48 mg/kg",6.12 s
same,hot plate paw withdrawal time,"SD rats [3]; 4 h after intramuscular injection around sciatic nerve, bupivacaine 8, conjugate 10/11/12 32/24/48 mg/kg",2.98 s
same,hot plate paw withdrawal time,"SD rats [3]; 6 h after intramuscular injection around sciatic nerve, bupivacaine 8, conjugate 10/11/12 32/24/48 mg/kg",2.91 s
same,hot plate paw withdrawal time,"SD rats [3]; 8 h after intramuscular injection around sciatic nerve, bupivacaine 8, conjugate 10/11/12 32/24/48 mg/kg",2.18 s
same,hot plate paw withdrawal time,"SD rats [3]; 12 h after intramuscular injection around sciatic nerve, bupivacaine 8, conjugate 10/11/12 32/24/48 mg/kg",1.85 s
same,hot plate paw withdrawal time,"SD rats [3]; 24 h after intramuscular injection around sciatic nerve, bupivacaine 8, conjugate 10/11/12 32/24/48 mg/kg",2.56 s
same,hot plate paw withdrawal time,"SD rats [3]; before surgery, bupivacaine 8, conjugate 10/11/12 32/24/48 mg/kg (as bupivacaine)",5.51 s
same,time after administration at which hot plate paw withdrawal time is significantly higher than vehicle group,SD rats [3]; [6],≤ 2 h
same,time the analgesic effect can reach,SD rats [3]; [7],2 h
same,hot plate paw withdrawal time,SD rats [4]; 0.5 h after direct injection around sciatic nerve,6.49 s
same,hot plate paw withdrawal time,SD rats [4]; 2 h after direct injection around sciatic nerve,3.52 s
same,hot plate paw withdrawal time,SD rats [4]; 4 h after direct injection around sciatic nerve,4.82 s
same,hot plate paw withdrawal time,SD rats [4]; 6 h after direct injection around sciatic nerve,4.59 s
same,hot plate paw withdrawal time,SD rats [4]; 8 h after direct injection around sciatic nerve,4.34 s
same,hot plate paw withdrawal time,SD rats [4]; 10 h after direct injection around sciatic nerve,4.30 s
same,hot plate paw withdrawal time,SD rats [4]; 12 h after direct injection around sciatic nerve,2.80 s
same,hot plate paw withdrawal time,SD rats [4]; 24 h after direct injection around sciatic nerve,3.25 s
same,time after administration at which hot plate paw withdrawal time is significantly higher than vehicle group,"SD rats [4]; conjugate 10/11/12 at 32/24/48 mg/kg, direct injection",≤ 2 h
same,hot plate paw withdrawal time,SD rats [4]; l h after direct injection around sciatic nerve,6.77 s
